Key:
Experiment in all cases: HPLC-UV and LC-MS product detection
Assay type in all cases: biochemical
CnqP4 = biological target: T1, CnqP4 (Streptomyces sp. CNQ-509, UniProt A0A0F7NDN9); details: […] aromatic substrate, […] GPP, […] MgCl2, Tris-HCl pH […] °C, […] h
T1 construct: gene AA958_24270; full-length, 303 aa; N-terminal His8 tag (pHis8) kept; E. coli Rosetta2(DE3)pLysS

CnqP6 = biological target: T2, CnqP6 (Streptomyces sp. CNQ-509, UniProt A0A0F7N6A5); details: […] °C, […] h
T2 construct: gene AA958_12635; full-length, 300 aa; N-terminal His8 tag (pHis8) kept; E. coli Rosetta2(DE3)pLysS
T2 sequence (A0A0F7N6A5 1-300): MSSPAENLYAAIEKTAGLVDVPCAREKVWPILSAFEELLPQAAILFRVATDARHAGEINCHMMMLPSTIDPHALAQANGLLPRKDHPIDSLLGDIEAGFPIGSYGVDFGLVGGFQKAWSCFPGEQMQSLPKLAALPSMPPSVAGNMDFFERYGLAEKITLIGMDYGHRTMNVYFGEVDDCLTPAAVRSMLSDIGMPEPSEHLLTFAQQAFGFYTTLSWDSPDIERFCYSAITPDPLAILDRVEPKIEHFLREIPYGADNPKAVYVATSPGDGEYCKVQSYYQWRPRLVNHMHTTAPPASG

CnqP3 = biological target: T3, CnqP3 (Streptomyces sp. CNQ-509, UniProt A0A0F7NDP3); details: […] °C, […] h
T3 construct: gene AA958_24325; full-length, 305 aa; N-terminal His8 tag (pHis8) kept; E. coli Rosetta2(DE3)pLysS
T3 sequence (A0A0F7NDP3 1-305): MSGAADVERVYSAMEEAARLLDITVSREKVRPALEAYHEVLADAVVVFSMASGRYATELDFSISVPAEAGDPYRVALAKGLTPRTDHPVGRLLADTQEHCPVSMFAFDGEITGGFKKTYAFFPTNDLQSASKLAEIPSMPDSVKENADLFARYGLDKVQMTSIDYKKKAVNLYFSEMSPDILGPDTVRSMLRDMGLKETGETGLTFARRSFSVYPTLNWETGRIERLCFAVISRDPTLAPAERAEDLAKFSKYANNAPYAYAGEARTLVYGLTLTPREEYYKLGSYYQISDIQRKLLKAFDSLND

[1] = […] aromatic substrate, […] GPP, […] MgCl2, Tris-HCl pH […]

T1 sequence (A0A0F7NDN9 1-303): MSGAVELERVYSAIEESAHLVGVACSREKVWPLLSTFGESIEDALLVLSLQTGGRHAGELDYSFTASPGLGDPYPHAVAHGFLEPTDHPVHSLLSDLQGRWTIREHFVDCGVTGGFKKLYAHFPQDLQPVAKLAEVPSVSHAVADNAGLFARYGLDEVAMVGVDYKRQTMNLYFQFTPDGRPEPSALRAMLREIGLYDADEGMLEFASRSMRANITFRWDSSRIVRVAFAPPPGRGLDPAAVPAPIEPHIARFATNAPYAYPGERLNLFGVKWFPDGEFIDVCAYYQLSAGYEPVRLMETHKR

Oc1ccc2ccc(O)cc2c1 [2,7-DHN]
HPLC-UV and LC-MS product detection (CnqP4): we found monogeranylated products for CnqP2, CnqP3 and CnqP4

CC(C)=CCC/C(C)=C/COP(=O)(O)OP(=O)(O)O [GPP]
HPLC-UV and LC-MS product detection (CnqP6; with genistein ([…]), […] GPP, […] MgCl2, Tris-HCl pH […]): genistein was converted with GPP by the prenyltransferases CnqP2, CnqP3 and CnqP6
HPLC-UV and LC-MS product detection (CnqP3; with flaviolin ([…]), […] GPP, […] MgCl2, Tris-HCl pH […]): Incubation with GPP resulted in the production of a new compound

O=C1C(O)=CC(=O)c2c(O)cc(O)cc21 [flaviolin]
HPLC-UV and LC-MS product detection (CnqP3; [1]): Only CnqP3 accepted flaviolin as a substrate.

O=c1c(-c2ccc(O)cc2)coc2cc(O)cc(O)c12 [genistein]
HPLC-UV and LC-MS product detection (CnqP6; [1]): genistein was converted with GPP by the prenyltransferases CnqP2, CnqP3 and CnqP6

Source: PMC4684245, “Diversity of ABBA Prenyltransferases in Marine Streptomyces sp. CNQ-509: Promiscuous Enzymes for the Biosynthesis of Mixed Terpenoid Compounds” (PLoS ONE, 2015)
